Experimental data as given in US20070208087A1, “Compounds, compositions and methods for the treatment of inflammatory diseases” (priority 2001, published 2007).
“And” between values parts separate entries of the source, which are not always exact repeats. Equal entries are not always repeated.

What was measured:
Type in all cases: cell-based
[1] = tested on: EOC 13.31 microglia cells; assay: NO release inhibition in LPS/IFNγ stimulated microglia, concurrent treatment, Griess reaction at 24 hours (Example 6); conditions: for OD Values: Griess; for OD Values / NO release: single replicates; for inhibition at 50 µM: Microglia
Procedure: The purpose of this experiment was to screen compounds 3, 4, 21, 26, 51, 52, 66, and 78 for their ability to inhibit Nitric oxide release from microglia. […] EOC 13.31 microglia cells were plated into 96 well plates for 24 hours. Confluent cells were treated with 50 μM of the bis- and tris-dihydroxyaryl compounds either with or without stimulation at 1 pg/ml LPS, and 1 ng/ml IFNγ. NO release was measured at 24 hours using the Griess reaction which is a spectrophotometric measure of NO release (reagents from Promega).

[2] = tested on: EOC 13.31 microglia cells; assay: Inhibition of NO release from microglia following 24 hours pretreatment (Example 10); conditions: for inhibition at 50 µM: Microglia
Method in brief: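 Confluent EOC 13.31 cells pretreated 24 hours with 50 μM compound (from 10 mM DMSO stock), then stimulated with 10 μg/ml LPS plus 10 ng/ml IFNγ without media change. After a further 48 hours, NO release was measured by Griess Reaction.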

[3] = tested on: EOC 13.31 microglial cells; assay: NO release inhibition screen in LPS/IFNγ stimulated microglia, Griess reaction at 48 hours (Example 7)
Method in brief: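 EOC 13.31 microglia, confluent at 24 h, stimulated with 10 μg/ml LPS plus 10 ng/ml IFNγ in presence of 50 uM test compound. Nitric oxide release quantified by Griess reaction at 48 hours.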

Microglial cells = assay: Dose response inhibition of NO release from microglia, 0.75-200 μM (Example 8); conditions: for Avg % Inhibition / μM NO release Avg / % inhibition / OD values (printed under head μM NO release) / μM NO release: 48 hours; for % inhibition / OD values (printed under head μM NO release) / μM NO release: single replicates
Procedure: This experiment was designed to determine dose response inhibition of NO release from microglia by bis- and tris-dihydroxyaryl compounds when stimulated with LPS/IFNγ. […] This experiment is designed to determine a dose response for various bis- and tris-dihydroxyaryl compounds. Microglial cells were plated into 96 well plates at 1×10^5 cells/ml. […] The doses tested were: 0.75 μM, 1.56 μM, 3.125 μM, 6.25 μM, 12.5 μM, 25 μM, 50 μM, 100 μM and 200 μM. Nitric oxide release was measured after 48 hours using the Griess reaction.

microglia = assay: Ranking of NO release inhibition (Example 12); conditions: ranking table
From the text: The bis- and tris-dihydroxyaryl compounds were ranked in order of effectiveness for the inhibition of NO release as set out in Table 8.

[4] = tested on: TNF-α release from microglia; assay: TNF-α release from LPS/IFNγ stimulated microglia, TNF-α ELISA (Example 11); conditions: 50 uM compound, TNF-α release, 10 ug LPS and 10 ng IFNγ, 24 hours
Method in brief: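 Microglia pretreated 1 h with 50 μM bis-/tris-dihydroxyaryl compound, then stimulated with 10 μg/ml LPS + 10 ng/ml IFNγ for 24 h. Medium sampled, stored at −80°, diluted 1:50 and TNF-α measured by ELISA.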

[5] = Compound + LPS/IFNγ, 50 μM, 24 hours
[6] = Compound Only (without LPS/IFNγ), 50 μM, 24 hours
[7] = 50 uM pretreatment 24 hours, then LPS/IFNγ 48 hours, single replicates
[8] = 50 uM + 10 μg/ml LPS/10 ng/ml IFNγ, 48 hours
[9] = 50 uM + 10 μg/ml LPS/10 ng/ml IFNγ, 48 hours, single replicates

`Oc1ccc(Cc2ccc(O)c(O)c2)cc1O` [Compound 3, 3,4,3′,4′-tetrahydroxydiphenylmethane] was tested, and the “inhibition of NO release, in words” value ([1]; 50 μM, LPS/IFNγ stimulated microglial cells) was “very effective inhibitors of NO release”, the “% inhibition of NO release” value [1, 5] was 48.8% and the “NO release, Avg” value [1, 5] was 9.5299 µM. For the same compound, the “OD Values” [1, 5] was 0.094 and 0.137 and 0.145, the “NO release” value [1, 5] was 6.0450 µM and 10.8259 µM and 11.7188 µM and the “NO release, Avg” value [1, 6] was 1.0417 µM. The “OD Values” [1, 6] was 0.053 (2×) and 0.054, the “NO release” value [1, 6] was 1.0000 uM (2×) and 1.1250 uM and the “% Inhibition (summary of inhibition of NO release)” value ([1]; Table 2 summary, 50 μM, LPS/IFNγ, 24 hours) was 48.8%. For the same compound, the “Avg % Inhibition” value ([2]; 50 uM pretreatment 24 hours, then LPS/IFNγ 48 hours) was 79.87%, the “% inhibition” value [2, 7] was 86.74% and 69.63% and 83.24% and the “OD values (printed under head μM NO release)” value [2, 7] was 0.206 and 0.163 and 0.153. For the same compound, the “μM NO release” value [2, 7] was 6.000 µM and 3.313 µM and 2.621 µM, the “Avg. % Inhibition” value [3, 8] was 96.40% and the “μM NO release Avg” value [3, 8] was 1.000 µM. The “OD values (printed under head μM NO release)” value [3, 9] was 0.064 and 0.055 and 0.062, the “μM NO release” value [3, 9] was 1.393 µM and 0.429 µM and 1.179 µM and the “% inhibition” value ([3]; 50 uM + 10 μg/ml LPS/10 ng/ml IFNγ, 48 hours, single replicates, 50 µM) was 98.46% and 95.75% and 94.98%. The “inhibition of NO release, in words” value ([3]; 50 uM, LPS/IFNγ stimulated microglia) was “effective inhibitors of NO release”, the “Avg % Inhibition” value (Microglial cells; dose 0.75 μM) was −8.947% and the “μM NO release Avg” value (Microglial cells; dose 0.75 μM) was 21.563 µM. For the same compound, the “% inhibition” value (Microglial cells; dose 0.75 μM) was −3.42% and −6.58% and −16.84%, the “OD values (printed under head μM NO release)” value (Microglial cells; dose 0.75 μM) was 0.2 and 0.183 and 0.187 and the “μM NO release” value (Microglial cells; dose 0.75 μM) was 23.125 µM and 20.469 µM and 21.094 µM. The “μM NO release Avg” value (Microglial cells; dose 1.56 μM) was 19.792 µM, the “% inhibition” value (Microglial cells; dose 1.56 μM) was 3.68% (2×) and −7.37% and the “OD values (printed under head μM NO release)” value (Microglial cells; dose 1.56 μM) was 0.188 and 0.174 (2×). For the same compound, the “μM NO release” value (Microglial cells; dose 1.56 μM) was 21.250 μM and 19.063 μM (2×), the “Avg % Inhibition” value (Microglial cells; dose 3.125 μM) was 0.789% and the “μM NO release Avg” value (Microglial cells; dose 3.125 μM) was 19.635 µM. For the same compound, the “% inhibition” value (Microglial cells; dose 3.125 μM) was 2.89% and 5.26% and −5.79%, the “OD values (printed under head μM NO release)” value (Microglial cells; dose 3.125 μM) was 0.186 and 0.175 and 0.172 and the “μM NO release” value (Microglial cells; dose 3.125 μM) was 20.938 µM and 19.219 µM and 18.750 µM. The “Avg % Inhibition” value (Microglial cells; dose 6.25 μM) was 7.368%, the “μM NO release Avg” value (Microglial cells; dose 6.25 μM) was 18.333 µM and the “% inhibition” value (Microglial cells; dose 6.25 μM) was 10.79% and 10.00% and 1.32%. For the same compound, the “OD values (printed under head μM NO release)” value (Microglial cells; dose 6.25 μM) was 0.177 and 0.165 and 0.166, the “μM NO release” value (Microglial cells; dose 6.25 μM) was 19.531 µM and 17.656 µM and 17.813 µM and the “Avg % Inhibition” value (Microglial cells; dose 12.5 μM) was 6.579%. For the same compound, the “μM NO release Avg” value (Microglial cells; dose 12.5 μM) was 18.490 µM, the “% inhibition” value (Microglial cells; dose 12.5 μM) was 10.00% and 2.89% and 6.84% and the “OD values (printed under head μM NO release)” value (Microglial cells; dose 12.5 μM) was 0.17 and 0.166 and 0.175. For the same compound, the “μM NO release” value (Microglial cells; dose 12.5 μM) was 18.438 µM and 17.813 µM and 19.219 µM, the “Avg % Inhibition” value (Microglial cells; dose 25 μM) was 14.737% and the “μM NO release Avg” value (Microglial cells; dose 25 μM) was 16.875 µM. The “% inhibition” value (Microglial cells; dose 25 μM) was 22.63% and 10.00% and 11.58%, the “OD values (printed under head μM NO release)” value (Microglial cells; dose 25 μM) was 0.164 and 0.15 and 0.166 and the “μM NO release” value (Microglial cells; dose 25 μM) was 17.500 µM and 15.313 µM and 17.813 µM. For the same compound, the “Avg % Inhibition” value (Microglial cells; dose 50 μM) was 47.368%, the “μM NO release Avg” value (Microglial cells; dose 50 μM) was 10.417 µM and the “% inhibition” value (Microglial cells; dose 50 μM) was 48.68% and 46.32% and 47.11%. For the same compound, the “OD values (printed under head μM NO release)” value (Microglial cells; dose 50 μM) was 0.119 and 0.117 and 0.12, the “μM NO release” value (Microglial cells; dose 50 μM) was 10.469 µM and 10.156 µM and 10.625 µM and the “Avg % Inhibition” value (Microglial cells; dose 100 μM) was 62.368%. For the same compound, the “μM NO release Avg” value (Microglial cells; dose 100 μM) was 7.448 µM, the “% inhibition” value (Microglial cells; dose 100 μM) was 64.47% and 60.53% and 62.11% and the “OD values (printed under head μM NO release)” value (Microglial cells; dose 100 μM) was 0.1 and 0.097 and 0.102. For the same compound, the “μM NO release” value (Microglial cells; dose 100 μM) was 7.500 µM and 7.031 µM and 7.813 µM, the “Avg % Inhibition” value (Microglial cells; dose 200 μM) was 67% and 67.105% and the “μM NO release Avg” value (Microglial cells; dose 200 μM) was 6.510 µM. For the same compound, the “% inhibition” value (Microglial cells; dose 200 μM) was 68.42% and 66.84% and 66.05%, the “OD values (printed under head μM NO release)” value (Microglial cells; dose 200 μM) was 0.095 and 0.092 and 0.094 and the “μM NO release” value (Microglial cells; dose 200 μM) was 6.719 µM and 6.250 µM and 6.563 µM. The “inhibition of NO release, in words” value (Microglial cells; dose response 0.75-200 μM) was “effective inhibitors of NO release” and the “% Inhibition at 50 μM (NO release)” value (microglia) was 30%.

`O=C(NCc1ccc(O)c(O)c1)c1ccc(O)c(O)c1` [Compound 52, 3,4-dihydroxybenzoic acid 3,4-dihydroxybenzylamide] was tested, and the “NO release, Avg” value [1, 5] was 16.2840 µM, the “NO release, Avg” value [1, 6] was -0.0417 µM and the inhibition at 50 µM ([1]; Compound + LPS/IFNγ, 24 hours, read-out: % inhibition of NO release) was 12.6%. For the same compound, the inhibition at 50 µM ([1]; Table 2 summary, LPS/IFNγ, 24 hours, read-out: % Inhibition (summary of inhibition of NO release)) was 12.6%, the “% inhibition” value [2, 7] was 80.39% and 81.34% and the inhibition at 50 µM ([2]; 50 uM pretreatment 24 hours, then LPS/IFNγ 48 hours, read-out: Avg % Inhibition) was 80%. For the same compound, the inhibition at 50 µM ([2]; 50 uM pretreatment 24 hours, then LPS/IFNγ 48 hours, single replicates, read-out: % inhibition) was 78.2%, the inhibition at 50 µM ([2]; 50 μM pretreatment, read-out: inhibition of NO release following pretreatment) was greater than 75% and the “% inhibition” value ([4]; individual replicates, 50 µM) was −12.27% and −26.58% and −30.69%. The inhibition at 50 µM ([4]; Microglia, 24 h, read-out: Avg % Inhibition) was -23.2% and the inhibition at 50 µM (microglia; Microglia) was 13%.
